{"source": "patent US20090048157A1", "about": "“USE OF ORGANIC COMPOUNDS” (priority 2004, published 2009)", "assay_type_in_all_cases": "in vivo, human", "key": {"[1]": {"system": "Serum CTX-I (bone resorption marker)", "test": "Serum CTX-I (CrossLaps) after single doses of oral or iv salmon calcitonin in male volunteers", "settings": "eight male volunteers, oral and iv SCT", "text": "Serum CTX-I, or CrossLaps® (Nordic Bioscience Diagnostics A/S, cat. no. 4CRL4000) is an enzyme-immunoassay for quantitative assessment of bone resorption, and has been cleared by the FDA. It is based on two highly specific monoclonal antibodies against the amino acid sequence of EKAHD-β-GGR originating from the C-telopeptide of type I collagen. The aspartic acid residue (D) is β-isomerized. Standards, control, or unknown serum samples are pipetted into the appropriate microtitre wells coated with streptavidin, followed by application of a mixture of a biotinylated antibody and a peroxidase-conjugated antibody. Then, a complex between the CTX antigens, biotinylated antibody and peroxidase-conjugated antibody is generated, and this complex binds to the streptavidin surface via the biotinylated antibody. Following the one-step incubation at room temperature, the wells are emptied and washed. A chromogenic substrate is added and the colour reaction is stopped with sulfuric acid. Finally, the absorbance is measured.\nThe effect of oral salmon calcitonin (SCT) on the serum levels of CTX-I is investigated by randomising study participants (eight male volunteers) to receive three. single doses of SCT, a verum intravenous infusion of SCT or placebo in a five-period cross-over design (the study is described in detail in Buchlin et al., J Bone Miner Res., (2002); 17:1478-1485)."}, "[2]": {"system": "Serum CTX-I (bone resorption marker)", "test": "Serum CTX-I response to oral SCT in postmenopausal women, clinical trial", "settings": "after the first dose, 0.15, 0.4, 1.0 or 2.5 mg, dose-dependent, compared with placebo", "text": "Serum CTX-I, or CrossLaps® (Nordic Bioscience Diagnostics A/S, cat. no. 4CRL4000) is an enzyme-immunoassay for quantitative assessment of bone resorption, and has been cleared by the FDA. It is based on two highly specific monoclonal antibodies against the amino acid sequence of EKAHD-β-GGR originating from the C-telopeptide of type I collagen. The aspartic acid residue (D) is β-isomerized. Standards, control, or unknown serum samples are pipetted into the appropriate microtitre wells coated with streptavidin, followed by application of a mixture of a biotinylated antibody and a peroxidase-conjugated antibody. […] Finally, the absorbance is measured.\n(§1) The response of serum CTX-I and N-MID® Osteocalcin to SCT in postmenopausal women is examined in a multi-center, randomised, double-blind, placebo-controlled, dose-ranking clinical trial including 277 study participants aged 55-85 years (the study has been described in detail in Tank{acute over (0)} et al., J Bone Miner Res., in print). The study participants receives active treatment (daily doses of 0.15, 0.4, 1.0, or 2.5 mg or 1.0 mg every other day) or placebo for three months and serum CTX-I as well as N-MID® Osteocalcin are measured frequently during a 24-hours period before drug administration and after one and three months."}, "[3]": {"system": "N-MID Osteocalcin (bone formation marker)", "test": "N-MID Osteocalcin ELISA response to oral SCT in postmenopausal women, clinical trial", "settings": "0.15-2.5 mg daily or 1.0 mg every other day, compared with placebo", "text": "The N-MID® Osteocalcin ELISA (Nordic Bioscience Diagnostics A/S, cat. no. 3OSC4000) is an enzyme innuosorbent assay for quantitative assessment of bone formation, and has been cleared by the FDA. It is based upon the application of two highly specific monoclonal antibodies (Mabs) against human osteocalcin. An antibody recognizing the midregion (amino acids 20-29) is used as the capture antibody and for detection a peroxidase conjugated antibody recognizing the N-terminal region (amino acids 10-16) is used. In addition to intact osteocalcin (amino acid 1-49) the N-terminal-Mid fragment (amino acids 1-43) is also detected. […] Finally, the absorbance is measured.\nas §1"}}, "data": [{"substance": "salmon calcitonin [SCT]", "values": [{"measurement": "Time to nadir of serum CTX-I post-treatment", "setting": "[1]", "value": "2 to 4", "unit": "h"}, {"measurement": "Time to return of serum CTX-I to pre-treatment levels", "setting": "[1]", "value": 24, "unit": "h"}, {"measurement": "Serum CTX-I: inhibition of bone resorption", "setting": "[1]; cross-over vs placebo", "value": "marked dose-dependent inhibition of bone resorption"}, {"measurement": "Serum CTX-I decrease from baseline", "setting": "[2]", "value": "−60.8 to −81.8", "unit": "%"}, {"measurement": "Changes of N-MID Osteocalcin", "setting": "[3]", "value": "non-significant"}]}]}
